Results on seven compounds are retold here after patent publication US20230165252A1, “ACTIVE COMPOUND COMBINATIONS” (Bayer Aktiengesellschaft, priority 2020, published 2023).

Molecules are shown by their SMILES. “And” between values parts separate entries of the source, which are not always exact repeats. Identical values can stand only once.

Holding throughout (type): cell-based
One assay relates to Botrytis cinerea. The assay is described as follows: in vitro-Test with Botrytis cinerea (microtiter growth inhibition). As to conditions: for inhibition of growth at 0.008 ppm: single active at 0.008 ppm; for inhibition of growth at 0.8 ppm: single active at 0.8 ppm. The method in brief:
(§1)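 Fungal spores or mycelium in liquid potato dextrose medium are incubated on wells pre-coated with evaporated test material at 20° C. and 85% humidity. Absorbance at 620 nm is taken initially and 3-5 days post-application; efficacy (%) is scaled from untreated control growth (0%) to no growth (100%).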

Assay [1] has as its system Colletotrichum lindemuthianum. Description: in vitro-Test with Colletotrichum lindemuthianum (microtiter growth inhibition). As to conditions: for inhibition of growth at 0.04 ppm: applied alone at 0.04 ppm. As to the method: The degree of efficacy expressed in % is denoted: 0% means an efficacy, which corresponds to that of the control, while an efficacy of 100% means that no disease is observed.
If the actual fungicidal activity exceeds the calculated value, then the activity of the combination is super-additive, i.e. a synergistic effect exists. In this case, the efficacy, which was actually observed, must be greater than the value for the expected efficacy (E), that was calculated from the abovementioned formula.
Example: In Vitro-Test with Fungal Microorganisms
Wells of 96-well microtiter plates are filled with 10 μl of a preparation of test compound or compound combination in methanol+emulsifier alkylaryl-polyglycol-ether. Thereafter, the solvent is evaporated in a hood. At the next step, 100 μl of liquid potato dextrose medium is given into each well, that has been amended with an appropriate concentration of spores or mycelium suspension of the test fungus.
With the aid of a photometer, the extinction in all wells is measured at the wavelength of 620 nm.
The microtiter plates are incubated at 20° C. and 85% relative humidity. The inhibition of growth is determined again photometrically 3-5 days after the application. Efficacy is calculated in relation to the untreated control, 0% efficacy means fungal growth as high as in untreated control while 100% efficacy means no fungal growth is measured.

A further assay has as its system Parastagonospora nodorum. Description: in vitro-Test with Parastagonospora nodorum (microtiter growth inhibition). The settings on record: compound alone. In a few lines: as §1
Assay [2] concerns Ustilago segetum var. avenae. Description: in vitro-Test with Ustilago segetum var. avenae (microtiter growth inhibition). The settings on record: compound alone. In a few lines:
as §1

The next assay relates to Cercospora beticola. The assay is described as follows: in vitro-Test with Cercospora beticola (microtiter growth inhibition). The method in brief:
as §1

[3] abbreviates: Botrytis cinerea, read-out: Efficacy %.
Setting [4] is: Botrytis cinerea, single active at 0.2 ppm, read-out: Efficacy %.
[5] abbreviates: Colletotrichum lindemuthianum, applied alone at 0.008 ppm, read-out: Efficacy %.
Setting [6] is: Colletotrichum lindemuthianum, read-out: Efficacy %.
The mark [7] stands for this setting: Colletotrichum lindemuthianum, applied alone at 0.2 ppm, read-out: Efficacy %.
Setting [8] is: Colletotrichum lindemuthianum, applied alone at 1.0 ppm, read-out: Efficacy %.
Setting [9] is: Parastagonospora nodorum, read-out: Efficacy %.
Where [10] appears, read: Parastagonospora nodorum, 1.0 ppm, read-out: Efficacy %.
[11] abbreviates: Colletotrichum lindemuthianum, applied alone at 4 ppm, read-out: Efficacy %.
[12] abbreviates: Colletotrichum lindemuthianum, applied alone at 20 ppm, read-out: Efficacy %.

Take `CON=C(C(=O)OC)c1ccccc1CON=C(C)c1cccc(C(F)(F)F)c1` [(3.020) trifloxystrobin]: the inhibition of growth at 0.008 ppm in the assay with Botrytis cinerea (setting [3]) was 0%; in assay [1] (setting [5]), 27%; in the assay on Parastagonospora nodorum (Parastagonospora nodorum, 0.008 ppm, read-out: Efficacy %), 36%. Further, the inhibition of growth at 0.2 ppm in the assay with Botrytis cinerea (setting [4]) was found to be 3%; in assay [1] (setting [7]), 78%; with Parastagonospora nodorum (setting [9]), 75%; in assay [2] (0.2 ppm, read-out: Efficacy %), 53%. Also, the inhibition of growth at 1 ppm in the assay with Botrytis cinerea (Botrytis cinerea, single active at 1.0 ppm, read-out: Efficacy %) turned out to be 14%; in assay [1] (setting [8]), 79%; with Parastagonospora nodorum (setting [10]) it was 83%; in assay [2] (1.0 ppm, read-out: Efficacy %), 82%. Also, the inhibition of growth at 0.04 ppm was determined as 56% in assay [1] (setting [6]) and 61% in the assay on Parastagonospora nodorum (setting [9]). Also, the Efficacy % in assay [1] (applied alone at 0.2 ppm) worked out at 77%.
Take `CC(C)(C)C(O)(CCc1ccc(Cl)cc1)Cn1cncn1` (stereo not shown) [(1.021) tebuconazole]: the inhibition of growth at 0.008 ppm in the assay on Botrytis cinerea (setting [3]) was determined as 2%; in assay [1] (setting [5]), 7%. In addition, the inhibition of growth at 0.04 ppm came out at 5% in the assay on Botrytis cinerea (Botrytis cinerea, single active at 0.04 ppm, read-out: Efficacy %); 20% in assay [1] (setting [6]); 10% in the assay on Parastagonospora nodorum (setting [9]). Also, the inhibition of growth at 0.2 ppm in the assay on Botrytis cinerea (setting [4]) amounted to 39%; in assay [1] (setting [7]), 2%; with Parastagonospora nodorum (setting [9]), 79%. Moreover, the figures for the inhibition of growth at 1 ppm (in assay [1] (setting [8]); in the assay with Parastagonospora nodorum (setting [10])) were 28% and 98%, respectively.
As for `CC(C)c1ccc(Cl)cc1CN(C(=O)c1c(C(F)F)nn(C)c1F)C1CC1` [(2.038) isoflucypram], the Efficacy % is 43% and 57% in the assay on Botrytis cinerea (single active at 0.04 ppm); 63% and 75% in the assay on Botrytis cinerea (single active at 0.2 ppm); 83% and 87% with Botrytis cinerea (single active at 1.0 ppm); 15% and 8% in assay [1] (applied alone at 0.008 ppm); 5% in assay [1] (applied alone at 1.0 ppm); 7% in assay [2] (0.008 ppm). Besides, the Efficacy % is 100% and 98% in assay [2] (0.2 ppm); 100% in assay [2] (1.0 ppm).
Regarding `O=C(NCCc1ncc(C(F)(F)F)cc1Cl)c1ccccc1C(F)(F)F` [(2.005) fluopyram], the inhibition of growth at 0.8 ppm is 66% in the assay with Botrytis cinerea (setting [3]); 14% in assay [1] (Colletotrichum lindemuthianum, applied alone at 0.8 ppm, read-out: Efficacy %); 32% in the assay with Parastagonospora nodorum (Parastagonospora nodorum, 0.8 ppm, read-out: Efficacy %). In addition, the inhibition of growth at 4 ppm is 64% in the assay on Botrytis cinerea (Botrytis cinerea, single active at 4 ppm, read-out: Efficacy %); 7% in assay [1] (setting [11]); 41% with Parastagonospora nodorum (Parastagonospora nodorum, 4 ppm, read-out: Efficacy %). Moreover, the inhibition of growth at 20 ppm in assay [1] (setting [12]) was found to be 19%; with Parastagonospora nodorum (Parastagonospora nodorum, 20 ppm, read-out: Efficacy %), 65%.
Consider `COc1cc(C)c(C(=O)c2c(OC)ccc(Br)c2C)c(OC)c1OC` [(15.016) metrafenone], for which the inhibition of growth at 0.8 ppm in the assay with Botrytis cinerea (setting [3]) is 0%; in the assay with Cercospora beticola (Cercospora beticola, applied alone at 0.8 ppm, read-out: Efficacy %), 0%. In addition, the inhibition of growth at 4 ppm with Cercospora beticola (Cercospora beticola, applied alone at 4 ppm, read-out: Efficacy %) was found to be 13%; in assay [1] (setting [11]) it was 15%. The inhibition of growth at 20 ppm in assay [1] (setting [12]) came to 10%.
Consider `CC1COC(Cn2cncn2)(c2ccc(Oc3ccc(Cl)cc3)cc2Cl)O1` (stereo not shown) [(1.002) difenoconazole], for which the inhibition of growth at 0.008 ppm in assay [1] (setting [5]) is 2%; in assay [2] (0.008 ppm, read-out: Efficacy %) it was 14%. For the same compound, the inhibition of growth at 0.04 ppm in assay [1] (setting [6]) was 13%; in the assay on Parastagonospora nodorum (setting [9]), 16%. Moreover, the inhibition of growth at 1 ppm in assay [1] (setting [8]) is 13%. The inhibition of growth at 0.2 ppm was determined as 83% with Parastagonospora nodorum (setting [9]) and 57% in assay [2] (0.2 ppm, read-out: Efficacy %). The Efficacy % in the assay on Parastagonospora nodorum (0.008 ppm) was determined as 0%; in the assay on Parastagonospora nodorum (1.0 ppm) it was 97%.
Take `CCO[PH](=O)[O-].CCO[PH](=O)[O-].CCO[PH](=O)[O-].[Al+3]` [(15.012) fosetyl-aluminium]: the Efficacy % came to 0% in the assay on Cercospora beticola (applied alone at 0.8 ppm); 0% with Cercospora beticola (applied alone at 4 ppm); 4% in the assay with Cercospora beticola (applied alone at 20 ppm); 15% in the assay on Cercospora beticola (applied alone at 100 ppm); 0% in assay [1] (applied alone at 0.8 ppm); 7% in assay [1] (applied alone at 4 ppm). The Efficacy % in assay [1] (applied alone at 20 ppm) is given as 0%; in assay [1] (applied alone at 100 ppm) it was 53%; in the assay on Parastagonospora nodorum (0.8 ppm) it was 0%; with Parastagonospora nodorum (4 ppm), 2%.
